The target in one test is Human recombinant MMP-13 (Homo sapiens, UniProt P45452). Kind of test: Inhibition of MMP-13, fluorogenic peptide substrate. It is filed as biochemical. To be noted: human recombinant MMP-13 activated with APMA; each table line is a separate determination. The protocol:
Human recombinant MMP-13 is activated with 2mM APMA (p-aminophenyl mercuric acetate) for 1.5 hours, at 37°C and is diluted to […] in assay buffer (50 mM Tris, pH 7.5, 200 mM sodium chloride, 5mM calcium chloride, […], 0.02% brij). Twenty-five microliters of diluted enzyme is added per well of a 96 well microfluor plate. The enzyme is then diluted in a 1:4 ratio in the assay by the addition of inhibitor and substrate to give a final concentration in the assay of […].
10 mM stock solutions of inhibitors are made up in dimethyl sulfoxide and then diluted in assay buffer as per the inhibitor dilution scheme for inhibition of human collagenase (MMP-1): Twenty-five microliters of each concentration is added in triplicate to the microfluor plate. The final concentrations in the assay are 30 mM, 3mM, 0.3 mM, and 0.03 mM.
Substrate (Dnp-Pro-Cha-Gly-Cys(Me)-His-Ala-Lys(NMA)-NH2) is prepared as for inhibition of human collagenase (MMP-1) and […] is added to each well to give a final assay concentration of […]. Fluorescence readings (360 nm excitation; 450 emission) are taken at time 0 and every 5 minutes for 1 hour.
Positive controls consist of enzyme and substrate with no inhibitor and blanks consist of substrate only.
IC50's are determined as per inhibition of human collagenase (MMP-1). If IC50's are reported to be less than […], inhibitors are then assayed at final concentrations of 0.3 mM, 0.03 mM, 0.003 mM and 0.0003 mM.

The target in test [1] is T1, Human Collagenase (MMP-1) (Homo sapiens, UniProt P03956).
T1 sequence (P03956 100-469): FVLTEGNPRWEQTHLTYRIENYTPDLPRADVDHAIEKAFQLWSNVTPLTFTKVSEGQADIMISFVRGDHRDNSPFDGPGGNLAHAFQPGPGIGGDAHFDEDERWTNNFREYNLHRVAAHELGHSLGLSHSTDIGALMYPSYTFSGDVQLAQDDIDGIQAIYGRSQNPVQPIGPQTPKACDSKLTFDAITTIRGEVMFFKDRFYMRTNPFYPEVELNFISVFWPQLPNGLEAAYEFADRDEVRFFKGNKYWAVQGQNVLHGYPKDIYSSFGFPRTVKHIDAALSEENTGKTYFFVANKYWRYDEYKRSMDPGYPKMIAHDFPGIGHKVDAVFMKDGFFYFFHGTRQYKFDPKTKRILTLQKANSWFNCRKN
Nature of the test: Inhibition of Human Collagenase (MMP-1), fluorogenic peptide substrate. It is filed as biochemical. To be noted: human recombinant collagenase activated with trypsin; each table line is a separate determination. As to the method: Inhibition of Human Collagenase (MMP-1)
Human recombinant collagenase is activated with trypsin using the following ratio: […] of collagenase. The trypsin and collagenase are incubated at room temperature for 10 minutes then a five fold excess (50 mg/10 mg trypsin) of soybean trypsin inhibitor is added.
10 mM stock solutions of inhibitors are made up in dimethyl sulfoxide and then diluted using the following Scheme: 10 mM ―> 120 µM ―> 12 µM ―> 1.2 µM ―> 0.12 µM
Twenty-five microliters of each concentration is then added in triplicate to appropriate wells of a 96 well microfluor plate. The final concentration of inhibitor will be a 1:4 dilution after addition of enzyme and substrate. Positive controls (enzyme, no inhibitor) are set up in wells D1-D6 and blanks (no enzyme, no inhibitors) are set in wells D7-D12.
Collagenase is diluted to 400 ng/ml and […] is then added to appropriate wells of the microfluor plate. Final concentration of collagenase in the assay is 100 ng/ml.
Substrate (DNP-Pro-Cha-Gly-Cys(Me)-His-Ala-Lys(NMA)-NH2) is made as a 5 mM stock in dimethyl sulfoxide and then diluted to […] in assay buffer. The assay is initiated by the addition of […] substrate per well of the microfluor plate to give a final concentration of […].
Fluorescence readings (360 nm excitation. 460 nm emission) were taken at time 0 and then at 20 minute intervals. The assay is conducted at room temperature with a typical assay time of 3 hours.
Fluorescence vs time is then plotted for both the blank and collagenase containing samples (data from triplicate determinations is averaged). […] The zero time is used as a blank for each compound at each concentration and these values are subtracted from the 120 minute data. Data is plotted as inhibitor concentration vs % control (inhibitor fluorescence divided by fluorescence of collagenase alone x 100). IC50's are determined from the concentration of inhibitor that gives a signal that is 50% of the control. […]

The structures appear in SMILES notation. Where “and” joins values, the source holds several entries; their conditions need not be identical. Identical values can stand only once.

The term IC50 denotes the concentration that inhibits the measured activity by half.

As to `CCOC(=O)CCN(C(C)(C)C(=O)NO)S(=O)(=O)c1ccc(Oc2ccc(F)cc2)cc1` [Example 3, 3-[[4-(4-FLUOROPHENOXY)BENZENESULFONYL]-(1-HYDROXYCARBAMOYL-1-METHYLETHYL)AMINO]PROPIONIC ACID ETHYL ESTER], the IC50 on Human recombinant MMP-13 was 1.6 nM and 2.3 nM; in test [1], 1200 nM and 1800 nM.

`CC(C)(C(=O)NO)N(CCC(=O)O)S(=O)(=O)c1ccc(Oc2ccc(F)cc2)cc1` [Example 4, 3-[[4-(4-FLUOROPHENOXY)BENZENESULFONYL)-(1-HYDROXYCARBAMOYL-1-METHYLETHYL)AMINO]PROPIONIC ACID]: the IC50 at Human recombinant MMP-13 was 5.7 nM and 2.3 nM and 8 nM; in test [1], 3500 nM and 2000 nM and 4800 nM.

Turning to `O=C(O)CCN(C1(C(=O)NO)CCCC1)S(=O)(=O)c1ccc(Oc2ccc(F)cc2)cc1` [Example 2, 3-[[4-(4-FLUOROPHENOXY)BENZENESULFONYL]-(1-HYDROXYCARBAMOYLCYCLOPENTYL) AMINO]PROPIONIC ACID], the IC50 is 1.2 nM and 0.6 nM on Human recombinant MMP-13; 360 nM and 200 nM in test [1].

These data come from patent publication EP1415984A1, “Aryloxyarylsulfonylamino hydroxamic acid derivatives” (Pfizer Products Inc., priority 1997, dated 1999).
